“Also recorded” adds a separate entry of the source. Like-named read-outs stand apart in the source and are kept apart here.
Experiments:
[1] = tested on: human dopaminergic neurons (iCell DopaNeurons); test: MPP+-induced neurotoxicity: neurite outgrowth (neurite length, branch points) of iCell DopaNeurons, Incucyte; type: cell-based; details: for Neurite Length Data, Mean ± S.D.: Table 5.1 (FIG. 5A); for Neurite Length Data, Mean ± S.D. / Neurite Branching Data, Mean ± S.D.: conditions 17-28, AUC of kinetic data; for Neurite Branching Data, Mean ± S.D.: Table 5.2 (FIG. 5B); for effects on neurite outgrowth: vs MPP+ alone
Description: (§1) We conducted an in vitro study of the drugs in Table 1 to evaluate the neuroprotective effects of 44 conditions of treatment (Table 2, experiments 1-41; 51-53) against MPP+-induced neurodegeneration toxicity on human dopaminergic neurons (iCell® DopaNeurons: iPS cell-derived human midbrain floorplate dopaminergic neurons). Further combinations (Table 2, experiments 42-50 and Table 3) are also disclosed.
iCell DOPA neurons are neural floor plate-derived midbrain dopaminergic neurons generated from human induced pluripotent stem cells (iPSCs). Dopaminergic neurons, specifically those located in the floor plate-derived midbrain are implicated in neurological disorders such as Parkinson's disease, MSA and DLBD among others. Thus iCell DopaNeurons provide a highly relevant in vitro model to investigate these types of pathologies (42, 43). The iCellDopa neurons were supplied from FUJIFILM Cellular Dynamics.
(§2) Three different measurements were made in the experiments. 1. Neurite length in mm is a measure of increase in dendrite length of neurons. […] 2. neurite branching is measure of dendrite branching. […] 3. Cytolysis of the cells is a measure of cell death. […] Experimental conditions were measured relative to the results of healthy cells in the studies.
(§3) Procedure. iCell DOPA neurons were thawed and cultured following the provider's instructions in Brainphys medium+provided supplements+1% N2 supplement (Stemcell Technologies)+penicillin/streptomycin+Laminin. They were plated at 20000 cells per well of a 384 well plate (pre-coated with poly-D-lysine and Laminin) in 70 μL of growth medium. Cells were incubated at 37° C./5% CO2 in a humidified cell culture incubator. Half of the culture medium was changed twice a week.
(§4) MPP+-induced neurotoxicity: 24 hours after neuronal plating, half of the medium was removed and the test compounds were applied with MPP+ treatment, both concentrated at 4×, were added to the wells. For each condition, six aliquots were added, corresponding to columns A-F in Table 2. Except for the NT/NT row, in each row, either the compound indicated dissolved in its vehicle noted in Table 1 was added, or only a vehicle was added as indicated. Column F is an indicator of whether MPP+ was added. If not, only the medium was added.
(§5) For the evaluation of conditions 1-28, Neurite outgrowth was followed for subsequent 48 hours using an Incucyte Zoom platform with one phase contrast image every 4 hours, using a 20× objective. After 48 hours, the medium containing test compounds and MPP+ was removed and replaced by fresh medium containing a fluorescent cytolysis marker (red fluorescence) and a live cell marker (green fluorescence). For the evaluation of conditions 29-53, Neurite outgrowth was followed similarly for subsequent 72 hours after MPP+ was added.
Each condition 1-41 and 51-53 was repeated in 8 wells of a 384 well plate, that is, each test condition studied in Table 2 was repeated eight times. NT/NT were cells in the standard medium only. Control/NT are the cells in the vehicle (as described above), with and without MPP+.
Assay endpoints and data analysis. Phase contrast images were analyzed at each time point to determine the neurite length and number of branch points per mm^2. Kinetic data was plotted and kinetics were normalized by subtracting the value of the first data point (at time of treatment), allowing to measure changes in neurite outgrowth only from the onset of the treatment, starting at zero. Area Under Curve (AUC) of kinetic data was obtained and used for plotting compound's effects and perform statistical analyzes.
(§6) Statistical analysis. We used one-way ANOVA followed by Bonferroni's multiple comparisons test.

[2] = tested on: human dopaminergic neurons (iCell DopaNeurons); test: MPP+-induced neurotoxicity: cytolysis of iCell DopaNeurons; type: cell-based
Description: as §1, §2, §3, §4, §5
Data was normalized to control conditions as there is basal cytolysis in the cell culture after thawing.
Fluorescently immuno-stained cells were imaged on a high content imaging platform. Individual segmentation of cells was performed by image analysis of the MAP2 and NeuN staining. The number of neurons and the neurite length were measured. The percentage of cytolyzed cells was also calculated.
as §6

IL-6 = test: LPS/ATP-induced IL-6 secretion by human microglia cells (Luminex); type: cell-based
Description: (§7) In addition to the studies discussed above assessing activity of combinations of drugs on MPP+-induced neurodegeneration toxicity on human dopaminergic neurons and measuring neuronal growth and neurite branching, we also assessed combinations of drugs in reducing lipopolysaccharide (LPS, from E. coli)-induced neuroinflammation.
(§8) Lipopolysaccharides are important outer membrane components of gram-negative bacteria such as E. coli and salmonella. They are large amphipathic glycoconjugates that typically consist of a lipid domain (hydrophobic) attached to a core oligosaccharide and a distal polysaccharide. LPS binds to Toll-like receptor 4 (TLR4) and activates microglia (51) which in turn increases secretion of pro-inflammatory cytokines such as interleukin-6 (IL-6), tumor necrosis factor-α (TNF-α), and CXCL1/GROα.
(§9) Microglia cells were obtained from an iCell® Microglia kit, 01279 (Catalogue N° R1131) from FUJIFILM Cellular Dynamics. We followed the manufacturer's protocol for activation of the microglial cells with LPS/ATP to subsequently measure the effect of the study drugs on pro-inflammatory cytokines IL-6, TNF-α and CXCL1/GROα.
(§10) All cell culture procedures were performed in aseptic conditions, under a laminar flow hood. Microglia were thawed and cultured following the provider's instructions. The microglia were plated at 50,000 cells per well of a Corning Primaria 96 well plate (Ref N° 353872) in 100 μL of growth medium. Cells were incubated at 37° C./5% CO2 in a humidified cell culture incubator.
(§11) Three days after cell plating, the test or reference substances (25 μL of solutions at 5×) were applied 1 hour before LPS and ATP stimulation.
(§12) One hour later, 12.5 μL of test or reference substances were added again at 2× concentrated followed by 12.5 μL of LPS at 12× concentration. Fifty microliters of ATP were introduced at 4× concentration, 5 h 30 min after incubation with LPS.
(§13) Six hours after LPS incubation, the supernatant of each well was collected and centrifugated at 1000 g for 10 minutes to remove the cells and debris.
(§14) Fifty microliters of supernatant from NT and LPS+ATP-treated wells were used to determine cytokine secretion (IL-6, TNF-α, CXCL1/GROα) by Luminex platform according to the provider's instructions. Samples were diluted prior to the assay to fit within the standard range if needed. Three wells were tested per each condition (Table 10). Cytokines levels in the supernatant were expressed in pg/mL. The data was analyzed using a One-Way ANOVA followed by Bonferroni test.

TNF-α = test: LPS/ATP-induced TNF-α secretion by human microglia cells (Luminex); type: cell-based
Description: as §7, §8, §9, §10, §11, §12, §13, §14

CXCL1/GROα = test: LPS/ATP-induced CXCL1/GROα secretion by human microglia cells (Luminex); type: cell-based; details: LPS 100 ng/mL + ATP 5 mM, 6 h after LPS, TAK-242 2 μM, MCC950 10 μM
Description: as §7, §8, §9, §10, §11, §12, §13, §14

[3] = chronic PD and DLBD mouse models; cited from earlier work
[4] = PD patients, small double-blind placebo controlled trial; cited from earlier work
[5] = LPS 100 ng/mL + ATP 5 mM, 6 h after LPS, TAK-242 2 μM, MCC950 10 μM
[6] = LPS 100 ng/mL + ATP 5 mM, 6 h after LPS, three wells, TAK-242 2 μM, MCC950 10 μM
[7] = as compared with […] distilled water in presence of LPS and ATP
[8] = MPP+ 100 μM, Table 6.2 (FIG. 7A), followed 72 hours, PCI 30 μM
[9] = MPP+ 100 μM, Table 8.2 (FIG. 7C), PCI 30 μM

Sodium Phenylbutyrate [PBA]
Neurite Branching Data, Plate 1, Mean ± S.D. [1]: 46742.8 ± 7107.5 per mm^2 | Neurite length - Baseline-corrected AUC (0-72 h), Mean [1]: 853.7 mm/mm^2 | Neurite length data, plate 1, Mean [1]: 1681.1 mm/mm^2 | Number of branch points per mm^2 - Baseline-corrected AUC (0-72 h), Mean [1]: 41712.8 per mm^2 | number of branches as compared with MPP+ alone [1]: significantly increased | number of branches increased as compared with MPP+ alone (control/MPP+) [1]: 89% | protective effect against MPP+ [1]: showed the protective effect, but to a substantially lesser effect than when combined; also recorded: showed protective effect, but it was not statistically significant | Cytolysis, %, Plate 1, Mean ± S.D. [2]: 72.06 ± 1.77% | IL-6 in supernatant, Replicate 1 (IL-6; [5]): 396.23 pg/mL | IL-6 in supernatant, Replicate 2 (IL-6; [5]): 363.94 pg/mL | IL-6 in supernatant, Replicate 3 (IL-6; [5]): 305.53 pg/mL | IL-6 in supernatant, Mean ± S.D. (IL-6; [6]): 355.23 ± 45.97 pg/mL | anti-inflammatory effect on activated microglia, all three cytokines (IL-6; LPS and ATP, IL-6, TNF-α, GROα together (FIG. 8, 9, 10)): Anti-inflammatory effects of the individual drugs were observed | decrease of IL-6 concentration (IL-6; [7]): 49% | TNF-α in supernatant, Replicate 1 (TNF-α; [5]): 32.67 pg/mL | TNF-α in supernatant, Replicate 2 (TNF-α; [5]): 35.47 pg/mL | TNF-α in supernatant, Replicate 3 (TNF-α; [5]): 32.24 pg/mL | TNF-α in supernatant, Mean ± S.D. (TNF-α; [6]): 33.46 ± 1.75 pg/mL | decrease of TNF-α concentration (TNF-α; [7]): 44% | CXCL1/GROα in supernatant, Replicate 1 (CXCL1/GROα): 627.29 pg/mL | CXCL1/GROα in supernatant, Replicate 2 (CXCL1/GROα): 383.60 pg/mL | CXCL1/GROα in supernatant, Replicate 3 (CXCL1/GROα): 476.49 pg/mL | CXCL1/GROα in supernatant, Mean ± S.D. (CXCL1/GROα; three wells): 495.79 ± 122.99 pg/mL | disease progression [3]: halted the disease progression

Nc1c(Br)cc(Br)cc1CN[C@H]1CC[C@H](O)CC1 [AMB, Ambroxol]
Neurite Length Data, Mean ± S.D. ([1]; MPP+ 100 μM): 763.9 ± 209.8 mm/mm^2 | Neurite Branching Data, Mean ± S.D. ([1]; MPP+ 100 μM): 20281.6 ± 8723.4 per mm^2 | Neurite length, plate 2, Mean ± S.D. [1, 8]: 1332.1 ± 174.8 mm/mm^2 | effects on neurite outgrowth ([1]; MPP+ 100 μM): no significant effects | Cytolysis, %, Plate 2, Mean ± S.D. [2, 9]: 73.29 ± 2.23%

CC(C)[C@H](NC(=O)c1ccc2ccccc2n1)C(=O)N[C@@H](CC(=O)O)C(=O)COc1c(F)cccc1F [PCI/MPP+, Q-VD-OPh]
Neurite Branching Data, Plate 1, Mean ± S.D. [1]: 38456.3 ± 11570.7 per mm^2 | Neurite Branching Data, Plate 2, Mean ± S.D. [1]: 52610.1 ± 16660.1 per mm^2 | Neurite length data, plate 1, Mean [1]: 1301.0 mm/mm^2 | Neurite length, plate 2, Mean ± S.D. [1]: 1430.1 ± 321.7 mm/mm^2 | Cytolysis, %, Plate 1, Mean ± S.D. [2]: 65.56 ± 1.89% | Cytolysis, %, Plate 2, Mean ± S.D. [2]: 67.93 ± 3.52%

Cc1c(O)c(=O)ccn1C [DFP, Deferiprone]
Neurite Length Data, Mean ± S.D. ([1]; MPP+ 100 μM): 874.5 ± 190.4 mm/mm^2 | Neurite Branching Data, Mean ± S.D. ([1]; MPP+ 100 μM): 24282.5 ± 6612.9 per mm^2 | Neurite length, plate 2, Mean ± S.D. [1, 8]: 1303.0 ± 378.7 mm/mm^2 | Neurite Branching Data, Plate 2, Mean ± S.D. ([1]; MPP+ 100 μM, Table 7.2 (FIG. 7B), followed 72 hours, PCI 30 μM): 51711.3 ± 15178.4 per mm^2 | effects on neurite outgrowth ([1]; MPP+ 100 μM): no significant effects | Cytolysis, %, Plate 2, Mean ± S.D. [2, 9]: 71.91 ± 1.28% | substantia nigra iron deposits (MRI) and motor scores of disease progression [4]: showed improvement

— patent publication US20240058288A1, “DRUG COCKTAIL FOR TREATMENT OF PARKINSON'S DISEASE, LEWY BODY DISEASE AND MULTIPLE SYSTEM ATROPHY” (ALETA NEUROSCIENCE, LLC, priority 2021, published 2024)
